The record followed here is publication PMC6017115, “Inhibitory Effect of Sauchinone on UDP-Glucuronosyltransferase (UGT) 2B7 Activity” (Molecules : A Journal of Synthetic Chemistry and Natural …, 2018).

Format in all cases: in vitro ADME
One data set concerns the target T1, UGT1A1 (Homo sapiens, UniProt P22309).
T1 construct: The reaction mixture containing 0.25 mg/mL protein of HLM; tissue Corning Life Sciences 452156; host or cells: pooled human liver microsomes, 50 donors
T1 sequence (P22309 26-533): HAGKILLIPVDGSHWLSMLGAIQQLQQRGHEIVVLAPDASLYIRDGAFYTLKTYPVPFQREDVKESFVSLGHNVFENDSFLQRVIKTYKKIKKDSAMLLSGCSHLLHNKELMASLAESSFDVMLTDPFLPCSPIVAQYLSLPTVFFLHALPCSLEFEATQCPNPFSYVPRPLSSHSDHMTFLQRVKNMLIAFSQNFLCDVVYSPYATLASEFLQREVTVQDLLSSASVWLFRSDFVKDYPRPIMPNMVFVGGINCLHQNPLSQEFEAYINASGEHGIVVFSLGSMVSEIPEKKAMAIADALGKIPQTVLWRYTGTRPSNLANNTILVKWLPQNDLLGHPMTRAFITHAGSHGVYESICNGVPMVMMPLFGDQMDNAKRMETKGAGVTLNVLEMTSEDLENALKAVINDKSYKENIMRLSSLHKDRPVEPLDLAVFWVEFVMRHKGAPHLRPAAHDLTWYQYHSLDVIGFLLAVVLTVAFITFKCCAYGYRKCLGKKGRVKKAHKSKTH
Description: Inhibition of UGT1A1 (β-estradiol glucuronidation) in human liver microsomes. As to conditions: substrate 10 μM β-estradiol, mean (minimum–maximum). On the procedure:
(§1) Their IC50 values were compared to that of sauchinone. […] UGT-mediated activities in the presence of sauchinone as an inhibitor were expressed as percentages of corresponding control values (in absence of sauchinone). From percentages of control activity versus inhibitor concentrations, a sigmoid shaped curve was fitted to the data and IC50 as an enzyme inhibition parameter was calculated by fitting the Hill equation to the data using GraphPad Prism 5 (GraphPad Software Inc., San Diego, CA, USA).

In a further data set the target is T2, UGT2B7 (Homo sapiens, UniProt P16662).
T2 sequence (P16662 24-529): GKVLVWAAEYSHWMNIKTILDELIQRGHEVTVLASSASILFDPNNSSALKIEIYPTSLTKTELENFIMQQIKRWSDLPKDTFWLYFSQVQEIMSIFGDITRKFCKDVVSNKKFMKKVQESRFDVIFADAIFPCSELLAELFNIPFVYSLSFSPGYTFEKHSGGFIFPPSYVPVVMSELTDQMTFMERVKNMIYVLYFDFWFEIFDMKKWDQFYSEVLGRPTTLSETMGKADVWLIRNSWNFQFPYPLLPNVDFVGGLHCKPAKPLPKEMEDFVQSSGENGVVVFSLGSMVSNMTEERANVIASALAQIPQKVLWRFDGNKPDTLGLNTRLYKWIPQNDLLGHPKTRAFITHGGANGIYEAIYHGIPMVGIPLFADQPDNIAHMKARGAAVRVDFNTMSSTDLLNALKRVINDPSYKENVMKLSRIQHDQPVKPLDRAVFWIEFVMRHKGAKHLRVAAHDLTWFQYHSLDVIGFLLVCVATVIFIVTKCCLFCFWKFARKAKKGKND
Description: Inhibition of UGT2B7 (zidovudine glucuronidation) in human liver microsomes. Set-up: tissue Corning Life Sciences 452156; host or cells: pooled human liver microsomes. As for the experimental part:
as §1
Background: Microsomes from liver hold many membrane-bound enzymes, among them those of drug oxidation.

For a further data set, the system named is Ugt1a3. Description: Inhibition of Ugt1a3 (CDCA) in mice liver microsomes. As to conditions: mouse, pH 7.6, read-out: IC50 of Ugt1a3-catalyzed CDCA. On the procedure:
Their IC50 values were compared to that of sauchinone. […] Mice were sacrificed and then livers were removed and rinsed with saline. After weighing the livers, they were homogenized with a four-fold volume of ice-cold homogenizing buffer (0.154 M KCl, 50 mM Tris-base, 1 mM EDTA, pH 7.4). After centrifugation for 35 min at 9000× g and 4 °C, the supernatants were centrifuged for 95 min at 100,000× g and at 4 °C. The supernatants were discarded and the pellets were homogenized again with ice-cold homogenizing buffer. These aliquots were stored at −80 °C. The subsequent process to evaluate the inhibitory effects of sauchinone on UGT activities in MLM was the same as those using HLM. UGT-mediated activities in the presence of sauchinone as an inhibitor were expressed as percentages of corresponding control values (in absence of sauchinone). From percentages of control activity versus inhibitor concentrations, a sigmoid shaped curve was fitted to the data and IC50 as an enzyme inhibition parameter was calculated by fitting the Hill equation to the data using GraphPad Prism 5 (GraphPad Software Inc., San Diego, CA, USA).

In a further data set the target is T3, UGT1A6 (Homo sapiens, UniProt P19224).
T3 construct: tissue Corning Life Sciences 452156; host or cells: pooled human liver microsomes
T3 sequence (P19224 27-532): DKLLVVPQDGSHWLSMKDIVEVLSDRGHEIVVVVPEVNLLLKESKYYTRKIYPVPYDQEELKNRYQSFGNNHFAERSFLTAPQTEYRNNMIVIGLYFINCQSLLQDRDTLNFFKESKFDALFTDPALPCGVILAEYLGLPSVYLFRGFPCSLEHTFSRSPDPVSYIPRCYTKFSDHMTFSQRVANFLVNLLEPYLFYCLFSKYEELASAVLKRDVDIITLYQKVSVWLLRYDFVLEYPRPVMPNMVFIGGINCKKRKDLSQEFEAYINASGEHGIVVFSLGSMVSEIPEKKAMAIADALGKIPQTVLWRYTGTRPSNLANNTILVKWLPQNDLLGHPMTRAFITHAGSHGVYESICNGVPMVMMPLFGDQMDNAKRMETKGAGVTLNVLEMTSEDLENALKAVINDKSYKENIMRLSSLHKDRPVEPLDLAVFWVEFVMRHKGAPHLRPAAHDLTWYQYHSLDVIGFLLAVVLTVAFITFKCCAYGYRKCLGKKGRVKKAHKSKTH
Nature of the data set: Inhibition of UGT1A6 (serotonin glucuronidation) in human liver microsomes. As for the experimental part:
as §1

A word on the IC50: it is the midpoint of a concentration-inhibition curve. Take `C[C@@H]1[C@H]2c3cc4c(cc3O[C@@]35OCOC3=CC(=O)[C@H](C[C@H]1C)[C@@H]25)OCO4` [Sauchinone]: the IC50 is 8.83 µM against UGT1A1, 0.279 µM at UGT2B7, 79.9 µM with Ugt1a3 and 0.758 µM on UGT1A6.
